{"source": "paper PMC4336331", "about": "“Novel Receptor-Derived Cyclopeptides to Treat Heart Failure Caused by Anti-β1-Adrenoceptor Antibodies in a Human-Analogous Rat Model” (PLoS ONE, 2015)", "format_in_all_cases": "in vivo, Lewis/CrlBR rats", "key": {"[1]": {"test_system": "anti-β1EC2-antibodies", "assay": "Free anti-β1EC2-titers by ELISA, prevention-study", "conditions": "1.0 mg/kg i.v. monthly", "description": "For treatment groups (a), (b), and (f) in total n = 38 non-immunised rats were injected with 0.9% NaCl and treated in parallel (“negative” controls). Blood was taken at regular intervals; rat-IgG was prepared by caprylic acid precipitation and assayed for reactivity by ELISA or competition-ELISA against linear peptides corresponding to the human β1EC2-sequence (AA199-223)[12], and by immuno-fluorescence microscopy with human embryonic kidney (HEK)293 cells stably expressing 0.4 pmol β1-AR/mg membrane protein (HEKβ1-cells). Specificity of the anti-β1EC2-abs was confirmed by co-localisation experiments using previously characterised N-terminal rabbit anti-β1-abs. Bound antibodies were detected with appropriate species-specific secondary antibodies (Dianova, Hamburg, Germany; anti-rabbit-, or anti-rat-Fab2, conjugated to Cy2 or Cy3). Calibrated rat-IgG (Dianova) served to quantify specific IgG-antibodies.\nFig 2 Study protocol and cardioprotection with cyclic β1EC2-peptides. Flow charts of the (A) prevention- and (E) therapy-study with β1EC2-mimicking peptides in the rat. Numbers given refer to animal-numbers in the respective study-groups. Immunisation with β1EC2/GST-FP (or 0.9% NaCl for controls) was started at t = 0. […] Titers were measured before and 24h after CP-injection. […] For better readability error-bars are not shown in the graph. […]"}, "[2]": {"test_system": "β1EC2-specific memory B-cells", "assay": "Flow cytometric detection of β1EC2-specific memory B-cells", "conditions": "Fig. 5K and L", "description": "(c) For flow cytometric detection of β 1 EC2-specific memory B-cells, splenocytes (1.5x10^8 cells per staining, 2x10^7 cells/ ml in PBS/0.1% BSA/0.02% NaN3) were first labelled with anti-rat IgG(Fc) PE (Jackson Immunoresearch, West Grove, USA) followed by three washings and a blocking step using normal rat serum plus GST (1:500 and 2 μg/ ml, respectively). After another washing step, OX-33 FITC (BD, Heidelberg, Germany, 0.1 μg/ml) and DyLight649-labelled GST/β1EC2-FP (0.2 μg/ml) were added. All incubations were carried out for 15 min on ice and in the dark. Finally, the cells were washed three times and analysed on a FACS-Calibur (BD, Heidelberg, Germany) and FlowJo Software (Tree Star, Ashland, USA) was used to analyse the data.\nFig 5 Immunology of cyclic β1EC2-peptides: fate of β1EC2-specific T- and B-cells. (A) Titer-course of anti-β1EC2-abs in β1EC2-CP-treated rats during the first 6 months of the prevention-study before and 24h after cyclopeptide-injection. Time-points of antigen-boosts are indicated by (red) lines, time-points of CP-injections by (green) arrows. For better readability error-bars are not shown in the graph. (B) Pre-experiments (antigenic recall-assays) performed with CD4^+ T-cells prepared from spleens of GST/β1EC2 fusion-protein (FP)-immunised untreated (n = 3, black) vs. 0.9%NaCl-injected control rats (n = 3, white). […]"}, "[3]": {"test_system": "GRK2 and GRK5", "assay": "qRT-PCR of cardiac GRK expression, therapy-study", "conditions": "qRT-PCR normalised to GAPDH (Fig. 4C)"}}, "note": "Peptide text beside a SMILES is read from it."}
{"smiles": "CC(C)[C@@H]1NC(=O)[C@H](Cc2ccccc2)NC(=O)[C@H](CC(=O)O)NC(=O)[C@H](CS)NC(=O)[C@H](CS)NC(=O)[C@H](CCCCN)NC(=O)[C@@H]2CCCN2C(=O)[C@H](CC(=O)O)NC(=O)[C@H](CC(N)=O)NC(=O)[C@H](Cc2ccc(O)cc2)NC(=O)[C@H](CS)NC(=O)[C@H](CCCNC(=N)N)NC(=O)[C@H](CCCNC(=N)N)NC(=O)[C@H](C)NC(=O)[C@H](CCC(=O)O)NC(=O)[C@H](CC(=O)O)NC(=O)[C@H](CO)NC(=O)[C@H](CCC(=O)O)NC(=O)[C@H](C)NC(=O)[C@H](CCCNC(=N)N)NC(=O)[C@H](C)NC(=O)[C@H](CCC(N)=O)NC(=O)CNC(=O)[C@H](CCCNC(=N)N)NC(=O)[C@H](CC(N)=O)NC(=O)[C@H]([C@@H](C)O)NC1=O", "note": "[β1EC2-CP] (cyclo(AESDEARRCYNDPKCCDFVTNRGQAR))", "values": [{"measurement": "reduction in free anti-β1EC2-abs vs. initial values", "setting": "[1]; after 5 injections, ELISA (Fig. 2B)", "value": "> 80", "unit": "%"}, {"measurement": "anti-β1EC2-titers in % of the initial values", "setting": "[1]; after 9–10 injections, despite monthly antigen-boosts (Fig. 2B)", "value": "~10", "unit": "%"}, {"measurement": "β1EC2-specific memory B-cells by flow cytometry, in words", "setting": "[2]", "value": "complete depletion"}, {"measurement": "upregulation of GRK2 and GRK5, in words", "setting": "[3]", "value": "reverted"}]}
